Calls of active or inactive are those of the source. The calls are words filed in the database; no cut-off is given here.
How the values were obtained:
[1] = tested on: OVCAR; test: Cytotoxicity against human OVCAR cells assessed as reduction in cell viability incubated for 72 hrs by MTT assay; type: cell-based
[2] = tested on: MCF7; test: Cytotoxicity against human MCF7 cells assessed as reduction in cell viability incubated for 72 hrs by MTT assay; type: cell-based; settings: MCF7, 72 h
[3] = tested on: SH-SY5Y; test: Cytotoxicity against human SH-SY5Y cells assessed as reduction in cell viability incubated for 24 to 72 hrs by MTT assay; type: cell-based
[4] = tested on: HepG2; test: Inhibition of Wnt/beta-catenin signaling pathway in human HepG2 cells assessed as reduction in TCF-dependent beta-catenin mediated transcription incubated for 24 hrs by Topflash reporter assay; type: cell-based
[5] = tested on: A549; test: Cytotoxicity against human A549 cells assessed as reduction in cell viability incubated for 72 hrs by MTT assay; type: cell-based; settings: A549, 72 h
[6] = tested on: HCT-116; test: Cytotoxicity against human HCT116 cells assessed as reduction in cell viability incubated for 24 to 72 hrs by MTT assay; type: cell-based
[7] = tested on: PC-3; test: Cytotoxicity against human PC3 cells assessed as reduction in cell viability incubated for 72 hrs by MTT assay; type: cell-based; settings: PC-3, 72 h
[8] = tested on: A549; test: Cytotoxicity against human A549 cells assessed as reduction in cell viability incubated for 24 to 72 hrs by MTT assay; type: cell-based
[9] = tested on: SH-SY5Y; test: Cytotoxicity against human SH-SY5Y cells assessed as reduction in cell viability incubated for 72 hrs by MTT assay; type: cell-based
[10] = tested on: OVCAR; test: Cytotoxicity against human OVCAR cells assessed as reduction in cell viability incubated for 24 to 72 hrs by MTT assay; type: ADME, cell-based
[11] = tested on: HepG2; test: Cytotoxicity against human HepG2 cells assessed as reduction in cell viability incubated for 72 hrs by MTT assay; type: cell-based; settings: HepG2, 72 h
[12] = tested on: MCF7; test: Cytotoxicity against human MCF7 cells assessed as reduction in cell viability incubated for 24 to 72 hrs by MTT assay; type: cell-based
[13] = tested on: PC-3; test: Cytotoxicity against human PC3 cells assessed as reduction in cell viability incubated for 24 to 72 hrs by MTT assay; type: cell-based
[14] = tested on: HCT-116; test: Cytotoxicity against human HCT116 cells assessed as reduction in cell viability incubated for 72 hrs by MTT assay; type: cell-based; settings: HCT-116, 72 h
[15] = tested on: HepG2; test: Cytotoxicity against human HepG2 cells assessed as reduction in cell viability incubated for 24 to 72 hrs by MTT assay; type: cell-based
[16] = tested on: HepG2; test: Inhibition of Wnt/beta-catenin signaling pathway in human HepG2 cells assessed as reduction in TCF-dependent beta-catenin mediated transcription at 20 to 40 uM incubated for 24 hrs by Topflash reporter assay; type: cell-based
[17] = tested on: HepG2; test: Inhibition of Wnt/beta-catenin signaling pathway in human HepG2 cells assessed as reduction in TCF-dependent beta-catenin mediated transcription at 5 to 40 uM incubated for 24 hrs by Topflash reporter assay; type: cell-based

Compound	IC50 [1] [µM]	IC50 [2] [µM]	Activity [3]	inhibition [4]	IC50 [5] [µM]	Activity [6]	IC50 [7] [µM]	Activity [8]	IC50 [9] [µM]	Activity [10]	IC50 [11] [µM]	Activity [12]	Activity [13]	IC50 [14] [µM]	Activity [15]	inhibition [16]	inhibition [17]
C=C(C)[C@@H]1CC[C@H]2O[C@H]2[C@H]1c1c(O)cc(CCCCC)cc1O	56.8	47.2	Dose-dependent effect	Dose-dependent effect	45.2	Dose-dependent effect	17.6	Dose-dependent effect	51	Dose-dependent effect	53	Dose-dependent effect	Dose-dependent effect	15.3	Dose-dependent effect		
CCCCCc1cc(O)c2c(c1)OC(C)(CCC=C(C)C)C=C2 (configuration not stated) [CANNABICHROMENE]	65	40	Dose-dependent effect		60	Dose-dependent effect	40	Dose-dependent effect	77	Dose-dependent effect	60	Dose-dependent effect	Dose-dependent effect	60	Dose-dependent effect	inactive	
C=C(C)[C@@H]1CCC(C)=C[C@H]1c1c(O)cc(CCCCC)cc1O [CANNABIDIOL]	50	55	Dose-dependent effect	Dose-dependent effect	40	Dose-dependent effect	12	Dose-dependent effect	48	Dose-dependent effect	42.8	Dose-dependent effect	Dose-dependent effect	18	Dose-dependent effect		
C=C(C)[C@@H]1CCC(C)=C[C@H]1c1c(O)cc(CCC)cc1O [CANNABIDIVARIN]	57	53	Dose-dependent effect	Dose-dependent effect	39	Dose-dependent effect	44	Dose-dependent effect	55	Dose-dependent effect	64	Dose-dependent effect	Dose-dependent effect	13	Dose-dependent effect		
CCCCCc1cc(O)c2c(c1)OC(C)(C)c1ccc(C)cc1-2 [CANNABINOL]	77	81	Dose-dependent effect		91	Dose-dependent effect	78	Dose-dependent effect	97	Dose-dependent effect	74	Dose-dependent effect	Dose-dependent effect	80	Dose-dependent effect		inactive
CCCCCc1cc(O)c2c(c1)OC(C)(C)[C@@H]1CCC(C)=C[C@@H]21 [DRONABINOL]	63	57	Dose-dependent effect		45	Dose-dependent effect	65	Dose-dependent effect	50	Dose-dependent effect	59	Dose-dependent effect	Dose-dependent effect	42	Dose-dependent effect	inactive	
CC[C@@H](C(=O)[C@@H](C)[C@@H](O)[C@H](C)[C@@H]1O[C@@H]([C@@H](CC)C(=O)O)CC[C@@H]1C)[C@H]1O[C@]2(C=C[C@@H](O)[C@]3(CC[C@@](C)([C@H]4CC[C@](O)(CC)[C@H](C)O4)O3)O2)[C@H](C)C[C@@H]1C [SALINOMYCIN]				Dose-dependent effect							24.5						
CCCc1cc(O)c2c(c1)OC(C)(C)[C@@H]1CCC(C)=C[C@@H]21 [TETRAHYDROCANNABIVARIN]	75	80	Dose-dependent effect		90	Dose-dependent effect	79	Dose-dependent effect	95	Dose-dependent effect	75	Dose-dependent effect	Dose-dependent effect	83	Dose-dependent effect	inactive	

Source: ChEMBL document CHEMBL4316624, “Analyzing the role of cannabinoids as modulators of Wnt/β-catenin signaling pathway for their use in the management of neuropathic pain” (Bioorg Med Chem Lett, 2019)
